# Entries after “also recorded” stand apart in the source; their conditions may differ.
# How the values were obtained:
# NC/Nga mice [1] = assay: Serum IgE content by ELISA in NC/Nga mice; assay type: in vivo; conditions: topical application for 5 weeks, PiCl-sensitized, vs Vaseline
# Source text: (§1) NC/Nga mice (5 weeks old, female) were purchased from Japan SLC, Inc. […] On day 12, day 19, day 26 and day 33 after starting application of Vaseline or fucoxanthin, 0.8% picryl chloride (PiCl) was further applied to the back skin of the mice. The behaviors of the mice were observed by video monitoring. On day 34 after starting application of Vaseline or fucoxanthin, bromodeoxyuridine (BrdU, Nacalai Tesque) (0.[…] weight) was intraperitoneally administered to the mice. At 5 weeks after starting application of Vaseline or fucoxanthin, the time each mouse spent for scratching behavior in 10 minutes was measured by video monitoring. Then, the mice were sacrificed and the auricular lymph node, blood and skin were obtained. Serum IgE content was determined by enzyme-linked immunosorbent assay (ELISA) using Mouse IgE Assay Kit (Morinaga Institute of Biological Science, Inc.). […] BrdU uptake was determined by ELISA using Cell Proliferation ELISA, BrdU (Colorimetric) (Roche Diagnostics K.K.). […] Also, serum IgE levels and swelling of the auricular lymph nodes of the mice were determined in the same manner as described in Example 2.
# GATA-2 = assay: Real time PCR gene expression in bone marrow cells cultured with IL-3; assay type: cell-based, mice; conditions: 10 μM added day 0, cultured 1-4 weeks, vs DMSO
# Procedure: (§2) Bone marrow cells obtained from 8-week-old female mice was cultured in a medium for conditioning containing IL-3. On the day the bone marrow cells were obtained (day 0), 10 μM fucoxanthin or dimethyl sulfoxide (DMSO) as a control was added to the culture solution and the cells were cultured for 1, 2, 3 or 4 weeks. Quantitative real time PCR was performed according to the method described in Kosaka et al. (supra). Five different cDNA pool dilutions were used for the experiments. The expression levels of PCR products were normalized to that of a housekeeping gene, GAPDH or β-actin, and the measured values were compared with cycle threshold value (Ct value). The primers used are shown below.
# (§3) The housekeeping genes GAPDH and β-actin were used for normalization as internal standards. All measurements were performed 4 times.
# PU.1 = assay: as above; assay type: cell-based, mice; conditions: 10 μM added day 0, cultured 1-4 weeks, vs DMSO
# Procedure: as §2, §3
# GATA-1 = assay: as above; assay type: cell-based, mice; conditions: 10 μM added day 0, cultured 1-4 weeks, vs DMSO
# Procedure: as §2, §3
# Mitf1 = assay: as above; assay type: cell-based, mice; conditions: 10 μM added day 0, cultured 1-4 weeks, vs DMSO
# Procedure: as §2, §3
# FcεRIα = assay: as above; assay type: cell-based, mice; conditions: 10 μM added day 0, cultured 1-4 weeks, vs DMSO
# Procedure: as §2, §3
# [2] = test system: histidine decarboxylase (Hdc); assay: as above; assay type: cell-based, mice; conditions: 10 μM added day 0, cultured 1-4 weeks, vs DMSO
# Procedure: as §2, §3
# Cebpα = assay: as above; assay type: cell-based, mice; conditions: vs DMSO
# Procedure: as §2, §3
# Hdc-luc = assay: Luciferase reporter assay in HEK293 cells; assay type: cell-based; conditions: HEK293, 0.1, 1 or 10 μM for 48 hours, vs DMSO
# Source text: (§4) The plasmids pGL3-Cebpα promoter-luc and pGL3-Mitf1 promoter-luc were provided by Dr. Hua Huang (University of Colorado school, Denver, USA). The plasmid NF-κB-luc was purchased from Agilent Technologies (Santa Clara, Calif.). The GATA-responsive reporter vector was provided by Dr. Ishijima (Takasaki University of Health and welfare, Gunma, Japan). Three GATA motifs from mouse α-1 globulin gene (5′-TGATAA-3′) were tandemly inserted into Sma I site of pRBGP3. HDC promoter was provided by Dr. Ootsu (Tohoku University school of Medicine, Sendai, Japan) and cloned into Kpn I-Hind III site of pGL4.10 (Hdc promoter-luc). The reporter assay was performed according to the method described in Kanatani, N. et al. Briefly, HEK293 cells were transfected with each of the luciferase constructs (0.2 μg) or pRL-CMV (Promega, Madison, Wis.) (0.001 μg). At 3 hours after transfection, the cells were treated with fucoxanthin (0.1 μM, 1 μM or 10 μM) or DMSO for 48 hours and reporter assay was performed using Dual-Luciferase® Reporter Assay System (Promega). Luciferase activity was measured using luminometer model TD20/20n (Turner BioSystems, Sunnyvale, Calif.) and normalized to Renilla luciferase activity expressed by CMV promoter.
# Cebpα-luc = assay: Luciferase reporter assay in HEK293 cells; assay type: cell-based; conditions: HEK293, 0.1, 1 or 10 μM for 48 hours, vs DMSO
# Source text: as §4
# NF-κB-luc = assay: Luciferase reporter assay in HEK293 cells; assay type: cell-based; conditions: HEK293, 0.1, 1 or 10 μM for 48 hours, vs DMSO
# Source text: as §4
# Mitf1-luc = assay: Luciferase reporter assay in HEK293 cells; assay type: cell-based; conditions: HEK293, 0.1, 1 or 10 μM for 48 hours, vs DMSO
# Source text: as §4
# NC/Nga mice [3] = assay: Swelling (length) of the auricular lymph node in NC/Nga mice; assay type: in vivo; conditions: topical application for 5 weeks, PiCl-sensitized, vs Vaseline
# Source text: as §1
# filaggrin = assay: Semi-quantitative immunoblot of skin proteins of NC/Nga mice; assay type: in vivo; conditions: topical treatment for 5 weeks, vs Vaseline
# Procedure: (§5) The immunoblot analysis was performed according to the method described in Kosaka, T. et al. (supra). Mice skin proteins were analyzed by SDS-10% polyacrylamide gel electrophoresis. The blots were incubated with a rabbit anti-filaggrin antibody (Santa Cruz Biotechnology, Inc., Santa Cruz, Calif.), a rabbit anti-actin antibody (Santa Cruz Biotechnology, Inc., Santa Cruz, Calif.) or a rabbit anti-loricrin antibody (Covance, Berkeley, Calif.), and then reacted with a horseradish peroxidase-conjugated anti-rabbit IgG or anti-donkey IgG (Santa Cruz Biotechnology, Inc.).
# loricrin = assay: as above; assay type: in vivo; conditions: topical treatment for 5 weeks, vs Vaseline
# Procedure: as §5
# NC/Nga mice [4] = assay: Toluidine blue staining of skin specimens, number of TB-positive (mast) cells; assay type: in vivo; conditions: 0.1% fucoxanthin in Vaseline, 5 weeks, vs Vaseline-applied mice
# Procedure: In the same manner as described in Example 2, Vaseline or fucoxanthin and PiCl were applied to NC/Nga mice. At 5 weeks after starting application of Vaseline or fucoxanthin, the mice were sacrificed, the mice skins were fixed with 4% paraformaldehyde and embedded in paraffin. The skin specimen was stained with toluidine blue (TB) (pH=4.1). Imaging of the stained specimen was performed by Virtual Slide System (Olympus).
compound,measurement,setting,value
CC(=O)O[C@H]1CC(C)(C)C(=C=C/C(C)=C/C=C/C(C)=C/C=C/C=C(C)/C=C/C=C(\C)C(=O)C[C@@]23O[C@]2(C)C[C@@H](O)CC3(C)C)[C@](C)(O)C1 [fucoxanthin],serum IgE level,NC/Nga mice [1],neither ear swelling (FIG. 9A) nor serum IgE level (FIG. 9B) were affected; also recorded: did not vary
same,expression of GATA-2,GATA-2,downregulated
same,expression of PU.1,PU.1,did not change significantly
same,expression of GATA-1,GATA-1,downregulated
same,expression of Mitf1,Mitf1,did not change significantly
same,expression of FcεRIα,FcεRIα,downregulated
same,expression of Hdc,[2],downregulated
same,"expression of Cebpα, 3 to 4 weeks","Cebpα; 10 μM added day 0, 3 to 4 weeks after starting culture",remarkably upregulated
same,"expression of Cebpα, first 2 weeks","Cebpα; 10 μM added day 0, first 2 weeks of culture",downregulated
same,Hdc-luc reporter activity,Hdc-luc,not regulated
same,Cebpα-luc reporter activity,Cebpα-luc,not regulated
same,NF-κB activity (NFκB-luc),NF-κB-luc,not affected
same,Mitf1-luc reporter activity,Mitf1-luc,not regulated
same,swelling of the auricular lymph node (ear swelling),NC/Nga mice [3],neither ear swelling (FIG. 9A) nor serum IgE level (FIG. 9B) were affected; also recorded: failed to attenuate lymph inflammation; also recorded: not affected
same,filaggrin expression level in skin (western blot),filaggrin,elevated
same,loricrin expression level in skin (western blot),loricrin,elevated
same,number of toluidine blue (TB)-positive cells in skin,NC/Nga mice [4],remarkably lower

# Source: patent publication US9566262B2, “Itch suppression by fucoxanthin” (THE RITSUMEIKAN TRUST, priority 2015, dated 2017)
